Reference: patent US12180226B2, “Spirotricycle RIPK1 inhibitors and methods of uses thereof” (Merck Sharp & Dohme LLC, priority 2021, dated 2024)
Where a name gives a salt, the structure may show the parent alone.

These compounds were tested against RIPK1 (recombinant GST-RIPK1 kinase domain, residues 1-327) (Homo sapiens (Human), UniProt Q13546) (assay: RIPK1-ADP-Glo Enzymatic Assay). Conditions: ADP-Glo; 25 nM GST-RIPK1, 300 μM ATP; assay lower limit ~25 nM; read-out: RIPK1 V0 Ec50.
Chain of RIPK1 (recombinant GST-RIPK1 kinase domain, residues 1-327) (Q13546 1-327): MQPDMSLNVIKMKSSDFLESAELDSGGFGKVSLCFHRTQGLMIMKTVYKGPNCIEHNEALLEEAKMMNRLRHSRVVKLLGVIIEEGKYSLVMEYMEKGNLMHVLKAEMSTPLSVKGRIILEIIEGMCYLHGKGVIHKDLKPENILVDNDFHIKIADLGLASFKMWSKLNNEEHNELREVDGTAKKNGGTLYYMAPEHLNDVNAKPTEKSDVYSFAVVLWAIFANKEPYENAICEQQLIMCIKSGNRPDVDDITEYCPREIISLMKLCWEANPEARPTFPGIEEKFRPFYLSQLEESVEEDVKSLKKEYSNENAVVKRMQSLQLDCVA
Format: biochemical
Method in brief: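 Compounds titrated 10-pt 1:3 from 100000 nM top (1% DMSO); 30 min preinc w/ 25 nM Sf21-expressed enzyme, RT; start w/ ATP (300 μM final) + dephos-MBP (3 μM); 150 min; ADP-Glo lumi; 4-param fit → EC50.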
`O=C1N2[C@@H](CC[C@H]2c2ccccc2)OC12CCN(c1nc3ccccc3o1)CC2` [Example 4.154, (5′S,7a′R)-1-(1,3-benzoxazol-2-yl)-5′-phenyltetrahydro-3′H-spiro[piperidine-4,2′-pyrrolo[2,1-b] [1,3]oxazol]-3′-one] was tested, and the EC50 was 0.0357 µM. Compound `Cc1ccn(-c2cccc(N3CCC4(CC3)O[C@@H]3CC[C@@H](c5ccccc5)N3C4=O)n2)n1` [Example 4.263, (5′S,7a′R)-1-[6-(3-methyl-1H-pyrazol-1-yl)pyridin-2-yl]-5′-phenyltetrahydro-3′H-spiro[piperidine-4,2′-pyrrolo[2,1-b] [1,3]oxazol]-3′-one] has an EC50 of 0.0262 µM. In the case of `O=C1N2[C@@H](CC[C@H]2c2ccccc2)OC12CCN(c1ccnc3c(F)cnn13)CC2F` (single isomer, unassigned) [Example 4.92, (3[S or R],4[R or S], 5′S,7a′R)-3-fluoro-1-(3-fluoropyrazolo[1,5-a]pyrimidin-7-yl)-5′-phenyltetrahydro-3′H-spiro[piperidine-4,2′-pyrrolo[2,1-b]oxazol]-3′-one, TFA salt], the EC50 is reported as < 0.025 µM. `O=C(C1CCCC1)N1CCC2(CC1)O[C@@H]1CC[C@@H](c3cc(F)cc(F)c3)N1C2=O` [Example 5.32, (5′S,7a′R)-1-(cyclopentane-carbonyl)-5′-(3,5-difluoro-phenyl)tetrahydro-3′H-spiro[piperidine-4,2′-pyrrolo[2,1-b]oxazol]-3′-one] gave an EC50 of 0.409 µM. In the case of `O=C1N2[C@@H](CC[C@H]2c2ccccc2)SC12CCN(c1ccnc3c(F)cnn13)CC2` [Example 4.132, (5′S,7a′R)-1-(3-fluoropyrazolo[1,5-a]pyrimidin-7-yl)-5′-phenyltetrahydro-3′H-spiro[piperidine-4,2′-pyrrolo[2,1-b]thiazol]-3′-one], the EC50 is reported as < 0.025 µM. `COc1cccc([C@@H]2CC[C@H]3OC4(CCN(C(=O)c5ccccc5)CC4)C(=O)N32)n1` [Example 17.5, (5′S,7a′R)-1-benzoyl-5′-(6-methoxypyridin-2-yl)tetrahydro-3′H-spiro[piperidine-4,2′-pyrrolo[2,1-b]oxazol]-3′-one, TFA salt] was tested, and the EC50 was 0.344 µM. `COc1cccc([C@@H]2CC[C@H]3OC4(CCN(c5ccc(C#N)c6ncnn56)CC4)C(=O)N32)c1` [Example 20.2, 5-[(5′S,7a′R)-5′-(3-methoxyphenyl)-3′-oxotetrahydro-1H,3′H-spiro[piperidine-4,2′-pyrrolo[2,1-b][1,3]oxazol]-1-yl][1,2,4]triazolo[1,5-a]pyridine-8-carbonitrile] was tested, and the EC50 was 0.025 µM. With `O=C1N2[C@@H](CC[C@H]2c2ccccc2)OC12CCN(c1ncc(F)cc1C(F)F)CC2` [Example 11.25, (5′S,7a′R)-1-[3-(difluoromethyl)-5-fluoropyridin-2-yl]-5′-phenyltetrahydro-3′H-spiro[piperidine-4,2′-pyrrolo[2,1-b][1,3]oxazol]-3′-one] the EC50 was 0.0611 µM. `CC1CN(c2ncnc3ccnn23)CCC12O[C@@H]1CC[C@@H](c3cc(F)cc(F)c3)N1C2=O` (stereo partly drawn) [Example 4.264, (5′S,7a′R)-5′-(3,5-difluorophenyl)-3-methyl-1-(pyrazolo[1,5-a] [1,3,5]triazin-4-yl)tetrahydro-3′H-spiro[piperidine-4,2′-pyrrolo[2,1-b] [1,3]oxazol]-3′-one] was tested, and the EC50 was < 0.025 µM. `O=C1N2[C@@H](CC[C@H]2c2cc(F)cc(F)c2)OC12CCN(S(=O)(=O)c1ccccc1)CC2` [Example 8.1, (5′S,7a′R)-5′-(3,5-Difluorophenyl)-1-(phenylsulfonyl)tetrahydro-3′H-spiro[piperidine-4,2′-pyrrolo[2,1-b]oxazol]-3′-one] showed an EC50 of 0.728 µM. In the case of `Cc1cccc(C(=O)N2CCC3(CC2)O[C@@H]2CC[C@@H](c4cc(F)cc(F)c4)N2C3=O)c1F` [Example 6.8, (5′S,7a′R)-5′-(3,5-difluorophenyl)-1-(2-fluoro-3-methyl-benzene-1-carbonyl) tetrahydro-3′H-spiro [piperidine-4,2′-pyrrolo[2,1-b][1,3]oxazol]-3′-one], the EC50 is reported as < 0.025 µM. In the case of `O=C1N2[C@@H](CC[C@H]2c2ccccc2)OC12CCN(c1ccc(-c3ncco3)cn1)CC2` [Example 21.16, (5′S,7a′R)-1-[5-(1,3-oxazol-2-yl)pyridin-2-yl]-5′-phenyltetrahydro-3′H-spiro[piperidine-4,2′-pyrrolo[2,1-b][1,3]oxazol]-3′-one], the EC50 is reported as < 0.025 µM. `NC(=O)c1ccc(N2CCC3(CC2)O[C@@H]2CC[C@@H](c4cccc(F)c4)N2C3=O)n2ncnc12` [Example 4.152, 5-[(5′S,7a′R)-5′-(3-fluorophenyl)-3′-oxotetrahydro-1H,3′H-spiro[piperidine-4,2′-pyrrolo[2,1-b] [1,3]oxazol]-1-yl][1,2,4]triazolo[1,5-a] pyridine-8-carboxamide] was tested, and the EC50 was < 0.025 µM. `COc1cc(N2CCC3(CC2)O[C@@H]2CC[C@@H](c4ccccc4)N2C3=O)ncn1` [Example 4.39, (5′S,7a′R)-1-(6-methoxypyrimidin-4-yl)-5′-phenyltetrahydro-3′H-spiro[piperidine-4,2′-pyrrolo[2,1-b] [1,3]oxazol]-3′-one] gave an EC50 of 0.0223 µM. `O=C(c1ccc(-n2nccn2)cc1)N1CCC2(CC1)O[C@@H]1CC[C@@H](c3cc(F)cc(F)c3)N1C2=O` [Example 6.21] gave an EC50 of 0.881 µM. In the case of `O=C1N2[C@@H](CC[C@H]2c2ccccc2)OC12CCN(c1ncnc3ccnn13)CC2F` (single isomer, unassigned) [Example 4.97, (3[R or S],4[S or R], 5′S,7a′R)-3-fluoro-5′-phenyl-1-(pyrazolo [1,5-a][1,3,5]triazin-4-yl)tetrahydro-3′H-spiro[piperidine-4,2′-pyrrolo[2,1-b]oxazol]-3′-one], the EC50 is reported as < 0.025 µM. `N#Cc1ccc(N2CCC3(CC2)O[C@@H]2CC[C@@H](c4cncc(F)c4)N2C3=O)n2nccc12` [Example 14.3, 7-((5′S,7a′R)-5′-(5-fluoropyridin-3-yl)-3′-oxotetrahydro-3′H-spiro[piperidine-4,2′-pyrrolo[2,1-b]oxazol]-1-yl)pyrazolo[1,5-a]pyridine-4-carbonitrile] was tested, and the EC50 was < 0.025 µM. For `O=C(c1ccccc1F)N1CCC2(CC1)O[C@@H]1CC[C@@H](c3ccccc3F)N1C2=O` [Example 1.16, (5′S,7a′R)-1-(2-fluorobenzoyl)-5′-(2-fluorophenyl)tetrahydro-3′H-spiro[piperidine-4,2′-pyrrolo[2,1-b]oxazol]-3′-one], the EC50 was < 0.025 µM. Compound `N#Cc1ccc(N2CC3(C2)O[C@@H]2CC[C@@H](c4ccccc4)N2C3=O)c2ccnn12` [Example 13.21, 4-((5′S,7a′R)-3′-oxo-5′-phenyltetrahydro-3′H-spiro[azetidine-3,2′-pyrrolo[2,1-b]oxazol]-1-yl)pyrazolo[1,5-a]pyridine-7-carbonitrile, TFA salt] has an EC50 of 0.0253 µM. For `O=C1N2[C@@H](CC[C@H]2c2ccccc2)OC12CCN(c1ccc(-c3ncco3)c3ncnn13)CC2` [Example 4.180, (5′S,7a′R)-1-[8-(1,3-oxazol-2-yl)[1,2,4]triazolo[1,5-a]pyridin-5-yl]-5′-phenyltetrahydro-3′H-spiro[piperidine-4,2′-pyrrolo[2,1-b] [1,3]oxazol]-3′-one], the EC50 was < 0.025 µM. For `O=C1N2[C@@H](CC[C@H]2c2ccccc2)OC12CCN(c1cc(Cl)nc(C3CCCCC3)n1)CC2` [Example 4.34, (5′S,7a′R)-1-(6-chloro-2-cyclohexylpyrimidin-4-yl)-5′-phenyltetrahydro-3′H-spiro[piperidine-4,2′-pyrrolo[2,1-b] [1,3]oxazol]-3′-one], the EC50 was 0.083 µM. Work on `O=C1N2[C@@H](CC[C@H]2c2ccccc2)OC12CCN(c1cc(OC3CCC3)ccn1)CC2` [Example 11.20, (5′S,7a′R)-1-[4-(cyclobutyloxy)pyridin-2-yl]-5′-phenyltetrahydro-3′H-spiro[piperidine-4,2′-pyrrolo[2,1-b][1,3]oxazol]-3′-one] yielded an EC50 of 0.0269 µM. `O=C1N2[C@@H](CC[C@H]2c2cc(F)cc(F)c2)OC12CC1CCC(C2)N1c1ccnc2c(F)cnn12` (stereo partly drawn) [Example 4.254, (5′S,7a′R)-5′-(3,5-difluorophenyl)-8-(3-fluoropyrazolo[1,5-a]pyrimidin-7-yl)tetrahydro-3′H-spiro[8-azabicyclo[3.2.1]octane-3,2′-pyrrolo[2,1-b] [1,3]oxazol]-3′-one] showed an EC50 of 0.126 µM. `O=C1N2[C@@H](CC[C@H]2c2cc(F)cc(F)c2)OC12CCN(c1ccc(Cl)c3ccnn13)CC2` [Example 15.1, (5′S,7a′R)-1-(4-chloropyrazolo[1,5-a]pyridin-7-yl)-5′-(3,5-difluorophenyl)tetrahydro-3′H-spiro[piperidine-4,2′-pyrrolo[2,1-b]oxazol]-3′-one, TFA] was tested, and the EC50 was < 0.025 µM. With `O=C1N2[C@@H](CC[C@H]2c2ccccc2)OC12CCN(c1ccnc3c(F)cnn13)CC2F` (single isomer, unassigned) [Example 4.91, (3[R or S],4[S or R], 5′S,7a′R)-3-fluoro-1-(3-fluoropyrazolo[1,5-a]pyrimidin-7-yl)-5′-phenyltetrahydro-3′H-spiro[piperidine-4,2′-pyrrolo[2,1-b]oxazol]-3′-one, TFA salt] the EC50 was < 0.025 µM. For `O=C1N2[C@@H](CC[C@H]2c2ccccc2)OC12CCN(c1ccc(Br)n3ncnc13)CC2` [Example 4.216, (5′S,7a′R)-1-(5-bromo [1,2,4]triazolo[1,5-a]pyridin-8-yl)-5′-phenyltetrahydro-3′H-spiro[piperidine-4,2′-pyrrolo[2,1-b] [1,3]oxazol]-3′-one], the EC50 was < 0.025 µM. In the case of `O=C(c1cccc2c1CCC2)N1CCC2(CC1)O[C@@H]1CC[C@@H](c3cc(F)cc(F)c3)N1C2=O` [Example 5.29, (5′S,7a′R)-5′-(3,5-difluoro-phenyl)-1-(2,3-dihydro-1H-indene-4-carbonyl)-tetrahydro-3′H-spiro [piperidine-4,2′-pyrrolo-[2,1-b]oxazol]-3′-one], the EC50 is reported as 0.0622 µM. In the case of `Cc1ccc(F)c(C(=O)N2CCC3(CC2)O[C@@H]2CC[C@@H](c4cccc(F)c4)N2C3=O)c1` [Example 6.133, (5′S,7a′R)-1-(2-fluoro-5-methylbenzene-1-carbonyl)-5′-(3-fluoro-phenyl)tetrahydro-3′H-spiro[piperidine-4,2′-pyrrolo[2,1-b] [1,3]oxazol]-3′-one], the EC50 is reported as < 0.025 µM.
